Measured values reported in patent US20210023029A1, “EDASALONEXENT DOSING REGIMEN FOR TREATING MUSCULAR DYSTROPHY” (Catabasis Pharmaceuticals, Inc., priority 2017, published 2021).
“Also recorded” adds a separate entry of the source.

Assays:
[1] = MoveDMD trial: systemic exposure and Ctrough in DMD patients; format: in vivo, human; details: for daily exposure level versus level effective in inhibiting NF-κB in the adult study: boys with DMD
Experimental: The MoveDMD trial (see FIG. 10) was designed to evaluate efficacy, safety/tolerability, pharmacokinetics (PK), pharmacodynamics (PD), and dose response of edasalonexent. The first phase portion of the MoveDMD trial was a 1-week study to evaluate the safety, PK, and PD at 33 and 67 mg/kg/day, given in 2 divided doses, and 100 mg/kg/day given in 3 divided doses.
The second phase and the open-label extension (OLE) portions of the MoveDMD trial enrolled boys ages 4 through 7 with DMD. Phase 2 was a 12-week placebo-controlled study with two cohorts given 33 mg/kg twice daily (BID; 67 mg/kg/day; n=10) or 33 mg/kg three times daily (TID; 100 mg/kg/day; n=10), and a placebo cohort (n=10). Patients in the OLE continued with either dose regimen of edasalonexent.
The ratios of all 24 transcripts within a patient were also averaged, and are shown in FIG. 13 using symbols which represent this average from each individual patient. This average was graphed against the average edasalonexent Ctrough values within each dose cohort (shown on the x-axis in ng/ml).

[2] = system: NF-κB regulated and inflammation-related gene transcripts; experiment: MoveDMD trial: NF-κB regulated and inflammation-related gene transcripts in whole blood (RNA sequencing); format: in vivo, human; details: one week treatment
Experimental: To determine the effects of a given edasalonexent dosing regimen on NF-κB inhibition, the expression levels of a number of NF-κB regulated and inflammation-related gene transcripts were measured in whole blood samples from DMD patients.
NF-kB regulated and inflammation-related genes were chosen from the Broad Institute's HALLMARK TNF/NF-kB gene set (Liberzon, et. al., (2015), Cell Systems, 1(6):417-425). Blood was drawn from DMD boys before and one-week after edasalonexent treatment, and collected into PAXgene RNA tubes (Qiagen). RNA was extracted and sequenced to directly measure the abundance of transcripts in whole blood for both time points in each patient, and the abundance of transcripts one-week post treatment was compared to pre-treatment values to determine the relative change in each of the selected transcripts. This ratio for each gene across all patients within a dose cohort was averaged and is shown in FIG. 12 by columns as average +/−SEM. A value less than 1 indicates a decrease in the transcripts after one-week treatment with edasalonexent.

boys with DMD [3] = experiment: MoveDMD trial: NSAA and timed function tests in boys with DMD; format: in vivo, human
Experimental: The MoveDMD trial (see FIG. 10) was designed to evaluate efficacy, safety/tolerability, pharmacokinetics (PK), pharmacodynamics (PD), and dose response of edasalonexent. The first phase portion of the MoveDMD trial was a 1-week study to evaluate the safety, PK, and PD at 33 and 67 mg/kg/day, given in 2 divided doses, and 100 mg/kg/day given in 3 divided doses. The second phase and the open-label extension (OLE) portions of the MoveDMD trial enrolled boys ages 4 through 7 with DMD. Phase 2 was a 12-week placebo-controlled study with two cohorts given 33 mg/kg twice daily (BID; 67 mg/kg/day; n=10) or 33 mg/kg three times daily (TID; 100 mg/kg/day; n=10), and a placebo cohort (n=10). Patients in the OLE continued with either dose regimen of edasalonexent. The North Star Ambulatory Assessment (NSAA) is a validated functional scale specifically designed for ambulant boys with DMD and measures overall function in young boys. […] The 10-meter walk/run, 4-stair climb, and time to stand are all timed tests used as a measure of function in boys with DMD. In each of these tests, as shown in FIGS. 15-17, the average rate of change of speed by study subjects in completing these physical tasks stabilized during the 60 week 100 mg/kg/day edasalonexent treatment period as compared with the rate of change during the off-treatment control period (36 weeks preceding the treatment period). All timed function test values stabilized during the treatment period.

boys with DMD [4] = experiment: MoveDMD trial: MRI-T2 and MR spectroscopy fat fraction of leg muscles; format: in vivo, human
From the text: The MR transverse relaxation time constant assessed by MRI (MRI-T2; also referred to as bulk T2) is sensitive to several pathophysiological features of disease pathology in DMD, including muscle damage, inflammation, and fat infiltration and provides a method for monitoring disease pathology over a wide age range. Furthermore, the proportion of fat infiltration in the muscle (fat fraction), measured using the gold standard, proton MRS (^1H-MRS), or a 3-point Dixon imaging technique, is associated with disease progression and correlates with performance on functional tests. (Willcocks et al., (2016), ANN. NEUROL., 79(4):535-47; Barnard et al., (2018), PLoS ONE, 13(3):E0194283). These are non-invasive measures of disease progression in DMD that are elevated and increase with age; changes in these measures strongly correlate with changes in function and predict future loss of functional milestones. […] The MRI-T2 value was a composite of 5 lower leg muscles. Stabilization of MRI-T2 values is consistent with the concomitant slowing of DMD disease progression observed through the functional assessments discussed previously.

mdx mice = details: cited from earlier work
NF-κB [5] = details: dog model of DMD; cited from earlier work
NF-κB [6] = details: cited from earlier work
[7] = 100 mg/kg/day, 60 weeks, compared to 36 week off-treatment control period
[8] = after 48 weeks receiving 100 mg/kg/day

SMILES: CC/C=C\C/C=C\C/C=C\C/C=C\C/C=C\C/C=C\CCC(=O)NCCNC(=O)c1ccccc1O [edasalonexent, N-(2-[(4Z,7Z,10Z,13Z,16Z,19Z)-docosa-4,7,10,13,16,19-hexaenamido]ethyl)-2-hydroxybenzamide]
- daily exposure level versus level effective in inhibiting NF-κB in the adult study ([1]; 67 mg/kg/day (33 mg/kg twice daily)): comparable
- daily exposure level versus level effective in inhibiting NF-κB in the adult study ([1]; 100 mg/kg/day (33 mg/kg three times daily)): comparable
- mean Ctrough level ([1]; 100 mg/kg/day compared to 33 and 67 mg/kg/day, after one week): highest Ctrough level
- change in 24 NF-κB regulated and inflammation-related gene transcripts, Day 7 versus Day 1 ([2]; 33 mg/kg/day): decreases were generally not noted
- change in 24 NF-κB regulated and inflammation-related gene transcripts, Day 7 versus Day 1 ([2]; 67 mg/kg/day): not so pronounced
- change in 24 NF-κB regulated and inflammation-related gene transcripts, Day 7 versus Day 1 ([2]; 100 mg/kg/day): statistically significant decrease in all 24 transcripts; also recorded: most effective
- muscle function and DMD disease progression (boys with DMD [3]; 33 mg/kg TID (100 mg/kg/day), 60 weeks, compared to off-treatment control period): clinically meaningful slowing of disease progression; also recorded: preservation of muscle function and slowing of DMD disease progression
- efficacy compared to the 133 mg/kg/day dosing regimen (boys with DMD [3]; 100 mg/kg/day versus 133 mg/kg/day (33/33/67 mg/kg)): equally effective
- 4-stair climb, average rate of change of speed (boys with DMD [3]; [7]): stabilized
- 10-meter walk/run, average rate of change of speed (boys with DMD [3]; [7]): stabilized
- North Star Ambulatory Assessment (NSAA) score, rate of change (boys with DMD [3]; [7]): stabilized
- time to stand, average rate of change of speed (boys with DMD [3]; [7]): stabilized
- treatment effects (boys with DMD [3]; boys affected by DMD enrolled at age 4-7, MoveDMD phase 2 trial and open-label extension): positive treatment effects
- annualized rate of change of MRI-T2 values (composite of 5 lower leg muscles) (boys with DMD [4]; 100 mg/kg/day treatment period (60 weeks) versus off-treatment period (36 weeks)): significantly improved
- change in fat fraction, soleus (MR spectroscopy) (boys with DMD [4]; [8]): 0.85%
- change in fat fraction, vastus lateralis (MR spectroscopy) (boys with DMD [4]; [8]): 5.9%
- diaphragm function and cumulative run distance (mdx mice; long-term studies on mdx mice (Milne et al. 2014)): improved diaphragm function and increased cumulative run distance
- muscle regeneration, degeneration, inflammation and function (mdx mice; mdx mice (Milne et al. 2014)): enhance muscle regeneration, reduce muscle degeneration and inflammation, and preserve muscle function
- NF-κB activity (binding of p65 subunit to DNA, secretion of TNF-α) (NF-κB [5]): decreases NF-κB activity
- expression of NF-κB driven genes in whole blood (NF-κB [6]; adult study, dose of approximately 100 mg/kg/day): changes in expression of NF-κB driven genes were observed
- levels of the p65 subunit of NF-κB (NF-κB [6]; healthy adult humans, compared to placebo or salicylate and omega-3 DHA as separate molecules): lowers levels of the p65 subunit of NF-κB
- biomarkers of inflammation in whole blood (NF-κB [6]; humans): decrease of biomarkers of inflammation
- activated NF-κB pathways (NF-κB [6]; phase 1 clinical program in adults (Donovan et al. 2017)): inhibited activated NF-κB pathways
- safety and tolerability (NF-κB [6]; phase 1 clinical program, three placebo-controlled studies in adults (Donovan et al. 2017)): safe and well-tolerated
